Reference: article PMC3591457, “Biodistribution and Elimination Study of Fluorine-18 Labeled N^ε-Carboxymethyl-Lysine following Intragastric and Intravenous Administration” (PLoS ONE, 2013)

How the values were obtained:
RAW264.7 cells = assay: Cell uptake of ^18F-CML and native CML in RAW264.7 cells; type: cell-based; conditions: incubation 2 hours
Protocol: (§1) To compare the different bioactivities of CML and ^18F-CML, two cell lines were evaluated for their capacity to take up native CML and the fluorobenzoylated derivative ^18F-CML. RAW264.7 macrophages and HepG2 liver cells were cultured in DMEM/LOWGLUCOSE, supplemented with 10% fetal bovine serum (FBS), 4.0 mmol/L L-glutamine, 110 mg/L sodium pyruvate, 100 U/mL penicillin, and 100 mg/L streptomycin at 37°C and 5% CO2.
(§2) For ^18F-CML cell uptake studies, RAW264.7 cells and HepG2 cells were seeded into 24-well plates at a density of 4×10^5 cells per well. Radio-tracer ^18F-CML (0.5 µCi/well, 3 µmol/mL) was incubated in a 37°C water bath for 15, 30, 60, and 120 min. At each time point the cells were washed 3 times with phosphate-buffered saline (PBS). The supernatant, washing-up liquid (unbound activity) and the pellet (cell-bound activity) were transferred to new tubes. Triplicates of the counting tubes containing supernatant and cell pellet were counted individually using a gamma counter for 1 min. For the blocking experiment, the uptake was carried out in the presence of the non-radioactive CML(10 µmol/mL) and processed similarly as described above. The uptake (%) of radio-tracer into the cell was determined using a gamma counter according to the following equation: [drawing 1]
(§3) For CML cell uptake ratio studies, unaltered CML (10 µmol/mL) was added to RAW264.7 and HepG2 cell pellets individually. The total proteins of each cell line were initially extracted from the lysates of 4×10^5 cells. […] The supernatants were purified and detected usingby the method described by Drusch et al., which uses an RP-HPLC method with an ortho-phthaldialdehyde (OPA)-derivatisation and fluorescence detection suited for automation. The HPLC analysis method used a 250 mm×4.6 mm C18 column (GROM-SIL 100 ODS-0 AB, Herrenberg, Germany) and detected the fluorescence excitation at 340 nm and emission at 455 nm. The peak identification of CML was confirmed by the retention time and standard addition and was quantified using an external standard. The amount of CML was calculated and expressed as a percentage.

HepG2 cells = assay: Cell uptake of ^18F-CML and native CML in HepG2 cells; type: cell-based; conditions: incubation 2 hours
Protocol: as §1, §2, §3

NC(CCCCNCC(=O)O)C(=O)O (stereo not shown) [CML, N^ε-carboxymethyl-lysine]
Uptake ratio of unaltered CML, amount less than ^18F-CML (RAW264.7 cells; P<0.01): 0.3%
Uptake of unaltered CML (RAW264.7 cells; n=3): 8.2 µg/mg of cell protein
Uptake ratio of unaltered CML, amount less than ^18F-CML (HepG2 cells; P<0.01): 0.2%
Uptake of unaltered CML (HepG2 cells; n=3): 6.3 µg/mg of cell protein
